The values below are quoted from earlier work in patent US20100022600A1, “METHODS AND COMPOSITIONS FOR TREATING CENTRAL NERVOUS SYSTEM TUMORS” (priority 2006, published 2010).

The test system of one data set is cholesterol biosynthesis. The conditions noted are these: PPARγ-independent; Diabetes 1999; 48: 254-60; cited from earlier work.
A further data set deals with acyl-CoA synthetase. The conditions noted are these: PPARγ-independent; J Biol Chem 2001; 276: 33736-40; cited from earlier work.
In a further data set the test system is BT4Cn rat glioma cells. The conditions noted are these: Carcinogenesis 2001; 22: 1747-55; cited from earlier work.
Another data set deals with C6 cells. The conditions noted are these: J Neurochem 2002; 81: 1052-60; cited from earlier work.

Structures are written as SMILES.

Consider `Cc1c(C)c2c(c(C)c1O)CCC(C)(COc1ccc(CC3SC(=O)NC3=O)cc1)O2` (single isomer, unassigned; (+)) [troglitazone, (+)-5 [[4-[(3,4-dihydro-6-hydroxy-2,5,7,8-tetramethyl-2H-1-benzopyran-2-yl)methoxy]phenyl]methyl]-2,4thiazolidinedione], for which the cholesterol biosynthesis result in the data set on cholesterol biosynthesis is given as “inhibit”. For the same molecule, in the data set with acyl-CoA synthetase, the acyl-CoA synthetase result is “inhibit”.

As for `O=C(Nc1ccccc1)c1cc([N+](=O)[O-])ccc1Cl` [GW9662], the “effect on growth inhibition by PPARγ agonists” value with BT4Cn rat glioma cells is “abolished”.

In the case of `CC1(COc2ccc(CC3SC(=O)NC3=O)cc2)CCCCC1` (stereo not shown) [ciglitazone, 5-[4-[(1-methylcyclohexyl)methoxy]benzyl]thiazolidine-2,4-dione], in the data set on C6 cells, the “redifferentiation of C6 cells” value was “increased redifferentiation”.
